Measured values published in patent publication US8129396B2, “2-[1H-benzimidazol-2(3H)-ylidene]-2-(pyrimidin-2-yl)acetamides and 2-[benzothiazol-2(3H)-ylidene]-2-(pyrimidin-2-yl)acetamides as kinase inhibitors” (Telik, Inc., priority 2008, dated 2012).

What was measured:
[1] = tested on: HCT116 (human colon carcinoma) cells; experiment: HCT116 cytotoxicity assay (CellTiter-Glo); format: cell-based; details: HCT-116, 72 h, cytotoxicity, three days culture, read-out: HCT116 IC50
Description: (§1) The cell lines HL60 (human promyelocytic leukemia) and HCT116 (human colon carcinoma) were obtained from the American Type Culture Collection, Manassas, Va., U.S.A., and HUVEC-2 (human umbilical vein endothelial cells) from BD Biosciences, Bedford, Mass., U.S.A. Aurora A kinase was obtained from Upstate Biotech, Billerica, Mass., U.S.A.; Aurora B kinase from BPS Bioscience, San Diego, Calif., U.S.A.; and VEGFR2 kinase from Cell Signaling Technology, Danvers, Mass., U.S.A. The IMAP FP Screening Express kit was obtained from Molecular Devices, Sunnyvale, Calif., U.S.A.; the CellTiter-Glo assay kit from Promega Corporation, Madison, Wis., U.S.A.; and the Cellular DNA Cytometric Analysis Reagent Kit and BrdU labeling and detection kit from Roche Diagnostics Corporation, Indianapolis, Ind., U.S.A. All products were used in accordance with manufacturer's directions. Kinase inhibition assays and the histone phosphorylation (p-H3) assay were conducted in duplicate, and the cytotoxicity and HUVEC proliferation assays were conducted in triplicate, in each case with solvent control.
Log-phase cells were trypsinized, collected by centrifugation, and resuspended in a small volume of fresh medium, and the density of viable cells was determined following Trypan Blue staining. Cells were diluted in fresh media (1×10^4 cells/mL for HL60 and 4×10^4 cells/mL for HCT116 cells), the test compounds (concentrations between 0.1 μM and 200 μM, dissolved in DMSO, 50 μL) added immediately after dilution to achieve a final DMSO concentration of 0.5%, then the suspensions added at 150 μL/well to 96-well plates, and incubated overnight to allow attachment in the case of adherent cells. The cells were cultured for three days (about three doubling times). The cells were then collected by centrifugation, and 100 μL of the culture supernatant was replaced by the CellTiter-Glo reagent. After incubation for 15 minutes at room temperature, the plate was read with a luminometer.

p-H3 in HCT116 cells = experiment: Histone phosphorylation (p-H3) assay; format: cell-based; details: Homo sapiens, HCT-116; HCT116 cells, 4 hr incubation; read-out: p-H3 IC50
Description: as §1
Log phase HCT116 cells were seeded at 2.5×10^4 cells/well in a 96-well plate and allowed to attach overnight. The test compounds were diluted in DMSO (8 concentrations with serial 3-fold dilutions) and added to the cells (0.5% DMSO final concentration), and the cells incubated for 4 hr. The cells were then washed three times with cold phosphate-buffered saline (PBS), and lysis buffer was added. After 30 min shaking at 4° C. and centrifugation, the supernatants were transferred to a nitrocellulose membrane by a “dot-blot” apparatus. After washing the wells, the membrane was processed for Western blot. Detection of p-H3 and β-actin was performed on the same membrane with primary rabbit anti-p-H3 and mouse anti-β-actin antibodies followed by secondary goat anti-rabbit IRDye800 and goat anti-mouse AlexaFluor 680 antibodies. The membranes were scanned on an Odyssey scanner.

VEGFR2 kinase = biological target: T1, VEGFR2 kinase (Homo sapiens, UniProt P35968); experiment: VEGFR2 kinase assay; format: biochemical; details: 6 μM ATP, 1 mM MnCl2; rounded to 1 significant figure
T1 construct: purchased Cell Signaling Technology
Description: as §1
This assay was performed as for the Aurora A kinase assay, using VEGFR2 kinase, CSKtide as the substrate with 6 μM ATP and 1 mM MnCl2, a kinase reaction time of 1 hr, and dilution of the binding reagent 1:1200 in binding buffer A/binding buffer B (1:1).

Aurora B kinase = biological target: T2, Aurora B kinase (Homo sapiens, UniProt Q96GD4); experiment: Aurora B kinase assay (IMAP fluorescence polarization); format: biochemical; details: 10 μM ATP; rounded to 1 significant figure; read-out: Aur-B IC50
T2 construct: purchased BPS Bioscience
Description: as §1
(§2) The kinase reaction was initiated by adding 100 nM fluorescein labeled PKAtide and 10 μM adenosine triphosphate (ATP), and allowed to continue for 45 min at room temperature, after which it was stopped by adding binding reagent (1:400 dilution in binding buffer A). After 30 min of room temperature incubation with shaking, the fluorescence polarization was measured on a LJL plate reader. Aurora B kinase assay: performed as for the Aurora A kinase assay, but using Aurora B kinase instead of Aurora A kinase.

[2] = tested on: HUVEC-2 (human umbilical vein endothelial cells); experiment: HUVEC VEGF-dependent proliferation assay (BrdU); format: cell-based; details: VEGF (25 ng/mL)-dependent proliferation, read-out: HUVEC IC50
Description: as §1
HUVEC-2 cells were seeded at 10^4 cells/well in a 96-well plate coated with 0.1% gelatin in complete medium. […] The compounds were serially diluted in DMSO, and added to the cells at 0.5% DMSO final concentration. After 2 hr, VEGF (25 ng/mL) was added; and after a further day, 5-bromo-2-deoxyuridine (BrdU, 10 μM) was added to label proliferating cells, and the cells incubated for another day. The plates were then processed using the Roche BrdU labeling and detection kit, and the VEGF-dependent antiproliferative activity of the compounds determined.

Aurora A kinase = biological target: T3, Aurora A kinase (Homo sapiens, UniProt O14965); experiment: Aurora A kinase assay (IMAP fluorescence polarization); format: biochemical; details: 10 μM ATP; rounded to 1 significant figure; read-out: Aur-A IC50
T3 construct: purchased Upstate Biotech
T3 sequence (O14965 1-403): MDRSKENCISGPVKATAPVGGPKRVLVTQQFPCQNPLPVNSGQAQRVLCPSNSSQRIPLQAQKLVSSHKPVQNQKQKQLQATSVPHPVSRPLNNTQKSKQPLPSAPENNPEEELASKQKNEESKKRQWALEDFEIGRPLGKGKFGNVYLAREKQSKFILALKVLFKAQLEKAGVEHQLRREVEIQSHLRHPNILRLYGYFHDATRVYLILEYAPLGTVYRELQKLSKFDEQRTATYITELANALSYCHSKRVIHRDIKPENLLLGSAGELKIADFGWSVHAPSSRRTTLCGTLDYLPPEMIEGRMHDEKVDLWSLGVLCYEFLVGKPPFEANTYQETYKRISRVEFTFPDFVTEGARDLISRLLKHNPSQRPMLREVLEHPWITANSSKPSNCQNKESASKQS
Description: as §1
as §2, with “Aurora A kinase assay: the test compounds were diluted in dimethylsulfoxide (DMSO, eight concentrations with serial 3-fold dilutions) and incubated (final DMSO concentration 2.5%) with Aurora A kinase at room temperature for 5 min in kinase reaction buffer with 1 mM dithiothreitol (IMAP FP Screening Express). The” for “The”

T1 sequence (P35968 20-1356): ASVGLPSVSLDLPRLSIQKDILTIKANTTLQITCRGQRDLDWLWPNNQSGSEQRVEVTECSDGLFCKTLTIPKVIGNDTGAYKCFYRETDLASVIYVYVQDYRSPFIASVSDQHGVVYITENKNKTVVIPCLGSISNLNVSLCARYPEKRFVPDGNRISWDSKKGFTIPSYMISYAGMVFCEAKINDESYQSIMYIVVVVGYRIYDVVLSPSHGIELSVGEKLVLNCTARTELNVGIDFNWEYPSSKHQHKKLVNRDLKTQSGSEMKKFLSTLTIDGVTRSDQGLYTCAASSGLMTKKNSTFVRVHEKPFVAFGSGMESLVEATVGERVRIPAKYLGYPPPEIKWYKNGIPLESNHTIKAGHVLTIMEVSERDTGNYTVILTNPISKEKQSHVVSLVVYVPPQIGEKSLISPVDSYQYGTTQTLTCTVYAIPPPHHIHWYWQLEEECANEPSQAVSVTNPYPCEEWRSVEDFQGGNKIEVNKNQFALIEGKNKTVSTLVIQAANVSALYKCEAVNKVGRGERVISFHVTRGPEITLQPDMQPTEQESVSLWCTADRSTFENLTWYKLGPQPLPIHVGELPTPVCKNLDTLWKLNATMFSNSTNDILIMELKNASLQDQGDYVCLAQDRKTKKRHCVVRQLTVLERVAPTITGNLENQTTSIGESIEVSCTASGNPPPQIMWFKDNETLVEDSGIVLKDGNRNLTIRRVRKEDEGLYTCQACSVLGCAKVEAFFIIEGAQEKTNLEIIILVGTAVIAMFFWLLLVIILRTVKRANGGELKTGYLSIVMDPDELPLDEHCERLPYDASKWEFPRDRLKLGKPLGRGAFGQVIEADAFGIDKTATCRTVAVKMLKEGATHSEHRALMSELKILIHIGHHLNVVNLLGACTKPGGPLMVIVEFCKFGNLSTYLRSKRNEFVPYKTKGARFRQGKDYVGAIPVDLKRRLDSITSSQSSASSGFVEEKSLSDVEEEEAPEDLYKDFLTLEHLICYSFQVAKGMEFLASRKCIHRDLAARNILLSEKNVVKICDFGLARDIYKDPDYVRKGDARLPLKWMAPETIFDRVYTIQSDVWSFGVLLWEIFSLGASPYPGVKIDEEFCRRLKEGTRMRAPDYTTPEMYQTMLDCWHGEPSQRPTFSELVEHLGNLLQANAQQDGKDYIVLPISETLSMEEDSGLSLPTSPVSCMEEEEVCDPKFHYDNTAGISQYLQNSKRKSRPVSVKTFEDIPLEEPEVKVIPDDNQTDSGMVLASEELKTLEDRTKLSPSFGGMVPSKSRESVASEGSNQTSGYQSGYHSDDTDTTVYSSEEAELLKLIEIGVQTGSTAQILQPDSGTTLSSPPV
T2 sequence (Q96GD4 whole entry): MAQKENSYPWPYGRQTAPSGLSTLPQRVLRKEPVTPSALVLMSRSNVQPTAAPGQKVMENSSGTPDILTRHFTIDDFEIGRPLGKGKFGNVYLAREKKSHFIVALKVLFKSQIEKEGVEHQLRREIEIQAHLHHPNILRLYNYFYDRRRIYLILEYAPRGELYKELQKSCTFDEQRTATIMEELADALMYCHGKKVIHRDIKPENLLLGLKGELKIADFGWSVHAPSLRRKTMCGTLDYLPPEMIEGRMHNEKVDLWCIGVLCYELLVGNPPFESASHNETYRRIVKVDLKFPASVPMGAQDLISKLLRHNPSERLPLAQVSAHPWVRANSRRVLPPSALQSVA

SMILES | IC50 [1] | IC50 (p-H3 in HCT116 cells) | IC50 (VEGFR2 kinase) | IC50 (Aurora B kinase) | IC50 [2] | IC50 (Aurora A kinase)
CN1CCN(C(=O)c2cnc(C(C(N)=O)=C3Nc4ccccc4S3)nc2C(F)(F)F)CC1 (single isomer, unassigned) [Compound 130A, 2-[benzothiazol-2(3H)-ylidene]-2-[5-(4-methylpiperazine-1-carbonyl)-4-trifluoromethylpyrimidin-2-yl]acetamide] | 2000 nM | 300 nM | 20 nM | 9 nM | 400 nM | 100 nM
NC(=O)/C(=C1\Nc2cc(OCCN3CCOCC3)ccc2S1)c1nccc(C(F)(F)F)n1 [Compound 112A] | 2000 nM | 900 nM | 200 nM | 20 nM | 200 nM | 20 nM
CN1CCN(C(=O)c2ccc3c(c2)S/C(=C(/C(N)=O)c2nccc(C(F)(F)F)n2)N3)CC1 [Compound 59A] | 400 nM | 90 nM | 6 nM | 20 nM | 50 nM | 8 nM
NC(=O)/C(=C1\Nc2ccc(NCCN3CCOCC3)cc2S1)c1nccc(C(F)(F)F)n1 [Compound 124A] | > 20000 nM | – | 100 nM | 30 nM | 3000 nM | 30 nM
NC(=O)/C(=C1\Nc2ccccc2S1)c1ncc(C(=O)NCCCN2CCOCC2)c(C(F)(F)F)n1 [Compound 131A] | 2000 nM | 900 nM | 200 nM | 60 nM | 800 nM | 90 nM
NC(=O)/C(=C1\Nc2ccc(CN3CCOCC3)cc2S1)c1nccc(C(F)(F)F)n1 [Compound 91A] | 300 nM | 100 nM | 10 nM | 20 nM | 40 nM | 2 nM
Cc1cc2c(cc1C)NC(=C(C(N)=O)c1ncc(C(=O)NCCCN3CCOCC3)c(C(F)(F)F)n1)N2 [Compound 133A] | 800 nM | 300 nM | 60 nM | 10 nM | 200 nM | 40 nM
NC(=O)/C(=C1\Nc2ccc(C(=O)O)cc2N1)c1nccc(C(F)(F)F)n1 [Compound 28A] | 4000 nM | 4000 nM | 10 nM | 5 nM | 40 nM | 5 nM
CN1CCN(CCC(=O)Nc2ccc3c(c2)N/C(=C(/C(N)=O)c2nccc(C(F)(F)F)n2)N3)CC1 [Compound 83A] | 200 nM | 200 nM | 60 nM | 10 nM | 200 nM | 6 nM
COc1ccnc(/C(C(N)=O)=C2/Nc3ccccc3S2)n1 [Compound 16A] | 2000 nM | 2000 nM | 300 nM | 20 nM | 2000 nM | 100 nM
Cn1ccnc1-c1ccc2c(c1)S/C(=C(/C(N)=O)c1nccc(C(F)(F)F)n1)N2 [Compound 106A] | 2000 nM | 900 nM | 30 nM | 20 nM | 80 nM | 3 nM
CCN1CCN(CCCNC(=O)c2ccc3c(c2)N/C(=C(/C(N)=O)c2nccc(C(F)(F)F)n2)N3)CC1 [Compound 55A] | 300 nM | 700 nM | 20 nM | 20 nM | 50 nM | 20 nM
NC(=O)/C(=C1\Nc2ccc(OCCN3CCOCC3)cc2S1)c1nccc(C(F)(F)F)n1 [Compound 111A] | 2000 nM | 400 nM | 100 nM | 9 nM | 300 nM | 20 nM
NC(=O)/C(=C1\Nc2ccc(NC(=O)[C@@H]3CCCN3)cc2N1)c1nccc(C(F)(F)F)n1 [Compound 80A] | 500 nM | 90 nM | 50 nM | 4 nM | 100 nM | 10 nM
CN1CCN(c2ccc3c(c2)N/C(=C(/C(N)=O)c2nccc(C(F)(F)F)n2)N3)CC1 [Compound 119A] | 1000 nM | 200 nM | 6 nM | 6 nM | 200 nM | 9 nM
NC(=O)/C(=C1\Nc2ccccc2S1)c1ncc(C(=O)NCCN2CCOCC2)c(C(F)(F)F)n1 [Compound 134A] | 4000 nM | 400 nM | 80 nM | 10 nM | 600 nM | 50 nM
NC(=O)/C(=C1\Nc2ccc(S(=O)(=O)N3CCNCC3)cc2S1)c1nccc(C(F)(F)F)n1 [Compound 129A] | 1000 nM | 1000 nM | 100 nM | 10 nM | 300 nM | 30 nM
NCC(=O)Nc1ccc2c(c1)SC(=C(C(N)=O)c1nccc(C(F)(F)F)n1)N2 (single isomer, unassigned) [Compound 76A, 2-{6-[(2-aminoacetyl)-amino]benzothiazol-2(3H)-ylidene}-2-(4-trifluoromethylpyrimidin-2-yl)acetamide] | 700 nM | 200 nM | 80 nM | 5 nM | 100 nM | 50 nM
NC(=O)/C(=C1\Nc2ccc(C(=O)NC3CCNCC3)cc2S1)c1nccc(C(F)(F)F)n1 [Compound 71A] | 200 nM | 200 nM | 4 nM | 40 nM | 90 nM | 20 nM
CN(CCN1CCCCC1)c1ccc2c(c1)S/C(=C(/C(N)=O)c1nccc(C(F)(F)F)n1)N2 [Compound 125A] | 3000 nM | 200 nM | 20 nM | 10 nM | 600 nM | 30 nM
